# In PMC12256496, “An advancement in developmental and reproductive toxicity (DART) risk assessment: evaluation of a bioactivity and exposure-based NAM toolbox” (Frontiers in Toxicology, 2025):
# Read-outs that look alike come from different tables or passages of the source.
# Tests used:
# [1] = renal clearance, Fup*GFR (PBK parameter); settings: method Fup*GFR
# [2] = ref Supplementary Data Sheet 1, cited from earlier work
# [3] = ref [2]; cited from earlier work
# [4] = design: method as in earlier work; settings: ref [3]; cited from earlier work
# [5] = test system: developmental or reproductive toxicity in animal or human; settings: evidence of developmental or reproductive toxicity in animal or human, irrespective of exposure/dose; ref Supplementary Data Sheet 1; cited from earlier work
# [6] = test system: human developmental and reproductive toxicity; settings: ref Supplementary Data Sheet 1, cited from earlier work
# [7] = Solubility pH 5.04; ref [1]; cited from earlier work
# [8] = existent consumer risk assessment for the cosmetic use scenario; ref SCCS / SCCP / SCCNFP; cited from earlier work
# [9] = hepatic intrinsic clearance, CLint (PBK parameter); type: in vitro ADME
# rats = settings: ref Supplementary Data Sheet 1, cited from earlier work
# [10] = ref PubChem; cited from earlier work
# [11] = Human in vivo PK data: concentration-dose ratio (CDR) and toxicokinetic variability factor (TKVF);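 also: Literature-pooled human in vivo PK data, plasma, serum or cord blood concentrations per daily dose, weighted by study population size across non-pregnant, pregnant and fetal groups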
# [12] = unbound fraction in plasma, fup (PBK parameter); type: in vitro ADME; settings: optimised based on [13]
# [13] = water solubility (PBK parameter); type: physicochemical; settings: Solubility pH 6.99, optimised based on [13], read-out: Aqueous Solubility
# serotonin receptor HTR2B = experiment: IPP: serotonin receptor HTR2B binding; settings: low-risk exposure scenario
# Description: In vitro pharmacological profiling is used to measure specific and high affinity non-covalent binding interactions between chemicals of interest and various targets with known safety liabilities. These targets include G protein coupled receptors (GPCRs), nuclear hormone receptors (NHRs), ion channels and enzymes. For this evaluation we included 72 targets of interest a full list of which is available in Supplementary Data Sheet 5, across a range of radioligand binding, enzymatic and protein-protein interaction assays run in binding mode only.
# The process for deriving a PoD for each of the 72 targets consisted of a two-step method that has been widely adopted when conducting in vitro pharmacological profiling experiments ([Brennan et al., 2024]). […] Targets showing an inhibition or stimulation greater than 50% of a maximal response produced by a reference compound are followed up in a second phase which includes an eight-point concentration response (in two replicates). […] EC50 values (concentration producing a half-maximal response) and IC50 values (concentration causing a half-maximal inhibition of the control agonist response) were determined by the Bayesian probabilistic model of the concentration-response curves and the Hill equation as per ([Labelle et al., 2019]). […] Calculated IC50s were taken forwards as the IPP PoDs ([Middleton et al., 2022]). […]
# mice = test system: mice; design: method as in Supplementary Data Sheet 1; settings: ref Supplementary Data Sheet 1; cited from earlier work
# pigtail monkeys = test system: pigtail monkeys; design: method as in Supplementary Data Sheet 1; settings: the only dose tested, ref Supplementary Data Sheet 1; cited from earlier work
# [14] = Bioactivity exposure ratio (BER): minimum platform PoD / estimated Cmax; settings: low-risk scenario of normal dietary exposure to retinol and its metabolite
# hamsters = test system: hamsters; design: method as in Supplementary Data Sheet 1; settings: ref Supplementary Data Sheet 1; cited from earlier work
structure (smiles),measurement,setting,value
Nc1cc([N+](=O)[O-])cc(Cl)c1O [2-Amino-6-chloro-4-nitrophenol],Renal Clearance,[1],0.034 L/h
same,NOAEL for maternal toxicity,[2],30 mg/kg bw
same,Fup,[3],0.47%
same,Peff,[4],7.96 cm/s x E-04
same,DART Hazard Call,[5],Non Toxic
same,Exposure risk (DART risk classification),"[6]; Cosmetic, 2% in hair colourant, dermal",Low Risk
same,Aqueous Solubility,[7],450000 µg/mL
same,MoS,[8],Used safely in cosmetic products. Existent consumer risk assessment from the SCCP. MoS >400.
"CCCCC(CC)C(=O)O (centres unmarked) [2-Ethylhexanoic acid (2-EHA), 2-Ethylhexanoic acid]",Renal Clearance,[1],0.008 L/h
same,Intrinsic Liver Clearance,[9]; optimised based on [16],7.128 L/h
same,developmental NOAEL,"rats; 2 rat studies, clubfoot/reduced skeletal ossification",100 mg/kg bw/day
same,NOAEL for parental effects,rats; EOGRT in rats,250 mg/kg bw/d
same,pKa Value ACID,[10],4.8
"Cc1cc(C(C)(C)C)c(O)c(C(C)(C)C)c1 [Butylated hydroxytoluene (BHT), Butylated hydroxytoluene]",Renal Clearance,[1],0.02382 L/h
same,offspring NOAEL,"[2]; OECD 416, effects on litter size, sex ratio and pup body weight gain","OECD 416: 0, ~25, ~100 and ~280 mg/kg/day. Effects on offspring. Offspring NOAEL of 25 mg/kg bw/day based on effects on litter size, sex ratio and pup body weight gain."
same,Intrinsic Liver Clearance,[9]; optimised based on [13],22540.4 L/h
same,TKVF,"[11]; Non-Pregnant, oral",2.5
same,Fup,[12],0.33%
same,solubility,[13],5 µg/mL
same,MoS,[8],Used safely in cosmetic products. Existent consumer risk assessment from the SCCS. MoS >3000.
"CCOC(=O)c1ccccc1C(=O)OCC [Diethyl phthalate (DEP), Diethyl phthalate]",BER from binding to the serotonin receptor HTR2B,serotonin receptor HTR2B,< 1
same,MoS,[8],Used safely in cosmetic products. Existent safety assessment from the SCCNFP. MoS 161
"CC1=C(/C=C/C(C)=C/C=C/C(C)=C/C(=O)O)C(C)(C)CCC1 [all-trans-retinoic acid (ATRA), all-trans-retinoic acid]","dose above which gross external, soft tissue and skeletal alterations occurred",mice,> 0.7 mg/kg/day
same,"dose at which gross external, soft tissue and skeletal alterations occurred",pigtail monkeys,10 mg/kg/day
same,"dose above which gross external, soft tissue and skeletal alterations occurred",rats; rats,> 2 mg/kg/day
same,BER,[14],< 1
same,CDR fold difference to non-pregnant,"[11]; female, human, in vivo",0.77
same,CDR fold difference to pregnant,"[11]; female, human, in vivo",1.00
same,TKVF,"[11]; female, human, in vivo",1.47
same,CDR fold difference to pregnant,"[11]; human, in vivo",0.71
same,DART Hazard Call,[5],Toxic
same,Exposure risk (DART risk classification),"[6]; Dietary, <10,000 IU Retinol, oral",Low Risk
same,Exposure risk (DART risk classification),"[6]; Pharmaceutical, 80 mg/daily, oral",High Risk
same,Exposure risk (DART risk classification),"[6]; Pharmaceutical, 0.1% cream, dermal",Uncertain Risk
same,"dose above which gross external, soft tissue and skeletal alterations occurred",hamsters,> 7 mg/kg/day
